Laboratory results reported in patent US12077503B2, “Substituted cyclic amides and their use as herbicides” (FMC CORPORATION, priority 2015, dated 2024).

What was measured:
Assay type in all cases: in vivo
corn (Zea mays) [1] = assay: Test G Post-Emergence Protocol; settings: Zea mays, post-emergence, 312 h, read-out: Corn damage rating; for plant injury at 15.625 g/ha: 15.625 g ai/ha, evaluated after 13 days (100=total damage to plant; 0=no damage to plant); for plant injury at 62.5 g/ha: 62.5 g ai/ha; for plant injury at 62.5 g/ha / plant injury at 250 g/ha: evaluated after 13 days, 100=total damage to plant, 0=no damage to plant; for plant injury at 250 g/ha: 250 g ai/ha
Summary of the method: (§1)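 Pot-grown seedlings, 8 days old, raised in a glasshouse at 24/16 °C day/night with 14 h light and 65% humidity, were sprayed post-emergence with test compound in acetone/water (50:50) plus 0.5% Tween 20 at 15.625, 62.5 or 250 g/ha. Damage was scored visually 13 days later on a 0–100 scale (100 = total damage).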

[2] = tested on: ivy-leaved morning glory (Ipomoea hederacea); assay: Test G Post-Emergence Protocol; settings: Ipomoea, post-emergence, 312 h, read-out: Morningglory, Ivy-leaved damage rating; for pest or weed control at 15.625 g/ha: 15.625 g ai/ha, evaluated after 13 days (100=total damage to plant; 0=no damage to plant); for pest or weed control at 62.5 g/ha: 62.5 g ai/ha; for pest or weed control at 62.5 g/ha / pest or weed control at 250 g/ha: evaluated after 13 days, 100=total damage to plant, 0=no damage to plant; for pest or weed control at 250 g/ha: 250 g ai/ha
Summary of the method: as §1

[3] = tested on: redroot pigweed (Amaranthus retroflexus); assay: Test G Post-Emergence Protocol; settings: Amaranthus retroflexus, post-emergence, 312 h, read-out: Pigweed, Redroot damage rating; for pest or weed control at 15.625 g/ha: 15.625 g ai/ha, evaluated after 13 days (100=total damage to plant; 0=no damage to plant); for pest or weed control at 62.5 g/ha: 62.5 g ai/ha; for pest or weed control at 62.5 g/ha / pest or weed control at 250 g/ha: evaluated after 13 days, 100=total damage to plant, 0=no damage to plant; for pest or weed control at 250 g/ha: 250 g ai/ha
Summary of the method: as §1

[4] = tested on: giant foxtail (Setaria faberi); assay: Test G Post-Emergence Protocol; settings: Setaria faberi, post-emergence, 312 h, read-out: Foxtail, Giant damage rating; for pest or weed control at 15.625 g/ha: 15.625 g ai/ha, evaluated after 13 days (100=total damage to plant; 0=no damage to plant); for pest or weed control at 62.5 g/ha: 62.5 g ai/ha; for pest or weed control at 62.5 g/ha / pest or weed control at 250 g/ha: evaluated after 13 days, 100=total damage to plant, 0=no damage to plant; for pest or weed control at 250 g/ha: 250 g ai/ha
Summary of the method: as §1

[5] = tested on: barnyardgrass (Echinochloa crus-galli); assay: Test G Post-Emergence Protocol; settings: Echinochloa crus-galli, post-emergence, 312 h, read-out: Barnyardgrass damage rating; for pest or weed control at 15.625 g/ha: 15.625 g ai/ha, evaluated after 13 days (100=total damage to plant; 0=no damage to plant); for pest or weed control at 62.5 g/ha: 62.5 g ai/ha; for pest or weed control at 62.5 g/ha / pest or weed control at 250 g/ha: evaluated after 13 days, 100=total damage to plant, 0=no damage to plant; for pest or weed control at 250 g/ha: 250 g ai/ha
Summary of the method: as §1

[6] = tested on: velvetleaf (Abutilon theophrasti); assay: Test G Post-Emergence Protocol; settings: Abutilon theophrasti, post-emergence, 312 h, read-out: Velvetleaf damage rating; for pest or weed control at 15.625 g/ha: 15.625 g ai/ha, evaluated after 13 days (100=total damage to plant; 0=no damage to plant); for pest or weed control at 62.5 g/ha: 62.5 g ai/ha; for pest or weed control at 62.5 g/ha / pest or weed control at 250 g/ha: evaluated after 13 days, 100=total damage to plant, 0=no damage to plant; for pest or weed control at 250 g/ha: 250 g ai/ha
Summary of the method: as §1

corn (Zea mays) [7] = assay: Test G Pre-Emergence Protocol; settings: Zea mays, pre-emergence, 312 h, evaluated after 13 days; for plant injury at 15.625 g/ha: 15.625 g ai/ha; for plant injury at 15.625 g/ha / plant injury at 250 g/ha: read-out: Corn damage rating (100=total damage to plant; 0=no damage to plant); for plant injury at 62.5 g/ha: 62.5 g ai/ha, 100=total damage to plant, 0=no damage to plant, read-out: Corn damage rating; for plant injury at 250 g/ha: 250 g ai/ha
Summary of the method: (§2)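 One day after sowing, pots are treated with a spray of test compound formulated in acetone/water 50:50 plus 0.5% Tween 20, giving 15.625, 62.5 or 250 g/ha. Evaluation on a 0–100 damage scale follows 13 days of glasshouse growth.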

[8] = tested on: ivy-leaved morning glory (Ipomoea hederacea); assay: Test G Pre-Emergence Protocol; settings: Ipomoea, pre-emergence, 312 h, evaluated after 13 days; for pest or weed control at 15.625 g/ha: 15.625 g ai/ha; for pest or weed control at 15.625 g/ha / pest or weed control at 250 g/ha: read-out: Morningglory, Ivy-leaved damage rating (100=total damage to plant; 0=no damage to plant); for pest or weed control at 62.5 g/ha: 62.5 g ai/ha, 100=total damage to plant, 0=no damage to plant, read-out: Morningglory, Ivy-leaved damage rating; for pest or weed control at 250 g/ha: 250 g ai/ha
Summary of the method: as §2

[9] = tested on: redroot pigweed (Amaranthus retroflexus); assay: Test G Pre-Emergence Protocol; settings: Amaranthus retroflexus, pre-emergence, 312 h, evaluated after 13 days; for pest or weed control at 15.625 g/ha: 15.625 g ai/ha; for pest or weed control at 15.625 g/ha / pest or weed control at 250 g/ha: read-out: Pigweed, Redroot damage rating (100=total damage to plant; 0=no damage to plant); for pest or weed control at 62.5 g/ha: 62.5 g ai/ha, 100=total damage to plant, 0=no damage to plant, read-out: Pigweed, Redroot damage rating; for pest or weed control at 250 g/ha: 250 g ai/ha
Summary of the method: as §2

[10] = tested on: giant foxtail (Setaria faberi); assay: Test G Pre-Emergence Protocol; settings: Setaria faberi, pre-emergence, 312 h, evaluated after 13 days; for pest or weed control at 15.625 g/ha: 15.625 g ai/ha; for pest or weed control at 15.625 g/ha / pest or weed control at 250 g/ha: read-out: Foxtail, Giant damage rating (100=total damage to plant; 0=no damage to plant); for pest or weed control at 62.5 g/ha: 62.5 g ai/ha, 100=total damage to plant, 0=no damage to plant, read-out: Foxtail, Giant damage rating; for pest or weed control at 250 g/ha: 250 g ai/ha
Summary of the method: as §2

[11] = tested on: barnyardgrass (Echinochloa crus-galli); assay: Test G Pre-Emergence Protocol; settings: Echinochloa crus-galli, pre-emergence, 312 h, evaluated after 13 days; for pest or weed control at 15.625 g/ha: 15.625 g ai/ha; for pest or weed control at 15.625 g/ha / pest or weed control at 250 g/ha: read-out: Barnyardgrass damage rating (100=total damage to plant; 0=no damage to plant); for pest or weed control at 62.5 g/ha: 62.5 g ai/ha, 100=total damage to plant, 0=no damage to plant, read-out: Barnyardgrass damage rating; for pest or weed control at 250 g/ha: 250 g ai/ha
Summary of the method: as §2

[12] = tested on: velvetleaf (Abutilon theophrasti); assay: Test G Pre-Emergence Protocol; settings: Abutilon theophrasti, pre-emergence, 312 h, evaluated after 13 days; for pest or weed control at 15.625 g/ha: 15.625 g ai/ha; for pest or weed control at 15.625 g/ha / pest or weed control at 250 g/ha: read-out: Velvetleaf damage rating (100=total damage to plant; 0=no damage to plant); for pest or weed control at 62.5 g/ha: 62.5 g ai/ha, 100=total damage to plant, 0=no damage to plant, read-out: Velvetleaf damage rating; for pest or weed control at 250 g/ha: 250 g ai/ha
Summary of the method: as §2

Compound	plant injury at 15.625 g/ha (corn (Zea mays) [1]) [%]	plant injury at 62.5 g/ha (corn (Zea mays) [1]) [%]	plant injury at 250 g/ha (corn (Zea mays) [1]) [%]	pest or weed control at 15.625 g/ha [2] [%]	pest or weed control at 62.5 g/ha [2] [%]	pest or weed control at 250 g/ha [2] [%]	pest or weed control at 15.625 g/ha [3] [%]	pest or weed control at 62.5 g/ha [3] [%]	pest or weed control at 250 g/ha [3] [%]	pest or weed control at 15.625 g/ha [4] [%]	pest or weed control at 62.5 g/ha [4] [%]	pest or weed control at 250 g/ha [4] [%]	pest or weed control at 15.625 g/ha [5] [%]	pest or weed control at 62.5 g/ha [5] [%]	pest or weed control at 250 g/ha [5] [%]	pest or weed control at 15.625 g/ha [6] [%]	pest or weed control at 62.5 g/ha [6] [%]	pest or weed control at 250 g/ha [6] [%]	plant injury at 15.625 g/ha (corn (Zea mays) [7]) [%]	plant injury at 62.5 g/ha (corn (Zea mays) [7]) [%]	also measured
Cc1c(F)cccc1NC(=O)[C@@H]1C(=O)N(C)C[C@H]1c1cccc(OCC(F)(F)F)c1 (racemic) [Compound 1764]	10	10	70	10	30	70	0	10	30	70	80	80	40	50	80	20	40	60	0	20	plant injury at 250 g/ha (corn (Zea mays) [7]): 70%; pest or weed control at 15.625 g/ha [8]: 0%; pest or weed control at 62.5 g/ha [8]: 0%; pest or weed control at 250 g/ha [8]: 20%; pest or weed control at 15.625 g/ha [9]: 0%; pest or weed control at 62.5 g/ha [9]: 10%; pest or weed control at 250 g/ha [9]: 30%; pest or weed control at 15.625 g/ha [10]: 60%; pest or weed control at 62.5 g/ha [10]: 70%; pest or weed control at 250 g/ha [10]: 80%; pest or weed control at 15.625 g/ha [11]: 40%; pest or weed control at 62.5 g/ha [11]: 70%; pest or weed control at 250 g/ha [11]: 80%; pest or weed control at 15.625 g/ha [12]: 0%; pest or weed control at 62.5 g/ha [12]: 10%; pest or weed control at 250 g/ha [12]: 30%
COCCOc1cccc([C@@H]2CN(C)C(=O)[C@H]2C(=O)Nc2cccc(F)c2C)c1 (racemic) [Compound 1765]	0	10	10	0	0	20	0	0	0	10	60	70	0	30	70	0	0	0	0	0	plant injury at 250 g/ha (corn (Zea mays) [7]): 20%; pest or weed control at 15.625 g/ha [8]: 0%; pest or weed control at 62.5 g/ha [8]: 0%; pest or weed control at 250 g/ha [8]: 0%; pest or weed control at 15.625 g/ha [9]: 0%; pest or weed control at 62.5 g/ha [9]: 0%; pest or weed control at 250 g/ha [9]: 0%; pest or weed control at 15.625 g/ha [10]: 50%; pest or weed control at 62.5 g/ha [10]: 70%; pest or weed control at 250 g/ha [10]: 90%; pest or weed control at 15.625 g/ha [11]: 20%; pest or weed control at 62.5 g/ha [11]: 50%; pest or weed control at 250 g/ha [11]: 60%; pest or weed control at 15.625 g/ha [12]: 0%; pest or weed control at 62.5 g/ha [12]: 0%; pest or weed control at 250 g/ha [12]: 0%
Cc1c(F)cccc1NC(=O)[C@@H]1C(=O)N(C)C[C@H]1c1cccc(OCC2CC2)c1 (racemic) [Compound 1766]	30	20	60	0	20	40	0	0	20	20	50	80	60	30	80	0	0	10	20	10	plant injury at 250 g/ha (corn (Zea mays) [7]): 20%; pest or weed control at 15.625 g/ha [8]: 0%; pest or weed control at 62.5 g/ha [8]: 0%; pest or weed control at 250 g/ha [8]: 0%; pest or weed control at 15.625 g/ha [9]: 0%; pest or weed control at 62.5 g/ha [9]: 0%; pest or weed control at 250 g/ha [9]: 0%; pest or weed control at 15.625 g/ha [10]: 30%; pest or weed control at 62.5 g/ha [10]: 70%; pest or weed control at 250 g/ha [10]: 70%; pest or weed control at 15.625 g/ha [11]: 10%; pest or weed control at 62.5 g/ha [11]: 60%; pest or weed control at 250 g/ha [11]: 80%; pest or weed control at 15.625 g/ha [12]: 0%; pest or weed control at 62.5 g/ha [12]: 0%; pest or weed control at 250 g/ha [12]: 10%
